We go through 31 molecules from patent US4031093A, “1,6-Dihydro-6-oxo-2-(ortho-substituted phenyl)pyrimidine-5-carboxylic acid derivatives” (priority 1976, dated 1977).

The test system of one data set is reagin-mediated rat Passive Cutaneous Anaphylaxis (PCA). As to the kind of experiment: reagin-mediated rat Passive Cutaneous Anaphylaxis (PCA) screening test. It is filed as in vivo, rat (Sprague-Dawley). The following applies: iv, Table I, i.v., 1-5 minutes prior to antigen challenge, esters suspended in Tween/CMC, read-out: ID50 (dose of compound that inhibits 50% of the response), ethyl esters, i.v. Here is the method: The reagin-mediated rat Passive Cutaneous Anaphylaxis (PCA) screening test used to evaluate the present compounds is generally regarded as one of the best animal models for use in predicting the antiallergy activity of test compounds in man. Briefly, the method consists of passive sensitization of skin sites on the test animals with reaginic antibodies followed after 24 hours by administration of the test drug and antigen challenge. The allergic response is measured by use of Evans' blue dye and is evaluated by the spot diameter at the injection site. Details of the test are provided below.
A substituted ovalbumin antigen is used both as immunogen and challenging antigen. The antigen is prepared as follows: 500 mg. ovalbumin (EA) and 500 mg. K2 CO3 are dissolved in 25 ml. distilled H2 O and stirred at room temperature for 5 minutes. Five hundred (500) mg. dinitrobenzene sulfonic acid, Na^+ salt, (previously recrystallized from hot absolute ethanol) is then added slowly with continued stirring. The reaction mixture is then immediately placed in the dark and allowed to proceed for 2 hours with constant stirring. After 2 hours the mixture is placed in suitable dialysis tubing and dialyzed against 5 changes (4 liters each) of distilled H2 O at 5° C. After dialysis the product is lyophilized and stored at room temperature in a brown or amber container. The antigen obtained will appear as a light yellow, amorphous solid which is very soluble in water or saline. It is designated as DNP denatured ovalbumin (DNP-d EA).
Adult, male Sprague-Dawley rats are used as a source of reagin-rich antisera for the PCA model. Immunization is by a combination of DNP-d EA on Al (OH)3 gel and B. pertussis vaccine. Preparation of the DNP-d EA - gel immunogen is as follows: Dissolve the DNP-d EA in TBS so as to give a concentration of 10 mg./ml. Slowly add 1 ml. of this solution to 10 ml. Al(OH)3 gel (10 mg. solids/ml.) with constant stirring at room temperature. Stir the mixture an additional 30 minutes to insure a uniform adsorption of antigen on gel.
The resulting preparation is then used in combination with phase I B. pertussis vaccine to immunize male S/D rats as follows: For each rat administer 0.1 ml. DNP-d EA - gel suspension intramuscularly in each hind leg (200 μg DNP-d EA and 2 mg. gel total dose). Follow these injections by the intraperitoneal administration of 1.0 ml. B. pertussis vaccine (10-20 × 10^9 organisms). The use of light ether anesthesia during this procedure is recommended to insure proper intramuscular and intraperitoneal injections. Nine days following immunization (but no longer than 10) the animals are exsanguinated by cardiac puncture or abdominal aorta cannulation under ether or pentobarbital anesthesia. The collected whole blood is allowed to clot, the serum separated by centrifugation and the individual serum samples stored frozen until assayed for IgE content.
Individual serum samples should be screened for reaginic antibody concentration before being pooled with other sera, as not all rats respond to immunization procedures with reagin production. A 1:50 saline dilution of serum from each immunized rat is used for this purpose. Intradermal injections of 0.05 ml. of the diluted sera are made in the shaven backs of two small female recipient rats, 100-120 gms. Several serum samples can be tested simultaneously in recipient animals. After a 24 to 48 hour latent period antigen challenge is accomplished by […] administration to each rat of 1 mg. DNP-d EA in 0.5 ml. 0.5% Evans' blue dye in saline. Sera which show positive PCA reactions at the 1:50 dilution, as measured 20 to 30 minutes post-challenge are pooled, dispensed in small aliquots and stored at -70° C. or lower until used. Negative sera may be discarded.
The IgE titer of the antisera pool should then be determined. […]
For `CCOC(=O)c1cnc(-c2ccccc2OCC)[nH]c1=O` [Example 1, Ethyl 1,6-dihydro-6-oxo-2-(2-ethoxyphenyl)pyrimidine-5-carboxylate], the ED50 turned out to be 0.4 mg/kg.

The data set is the same for the next values; noted with them: iv, Table II, i.v., 1-5 minutes prior to antigen challenge, acids solubilized in aqueous sodium bicarbonate, read-out: ID50 (dose of compound that inhibits 50% of the response), 5-carboxylic acids, i.v.
With `CCOc1ccccc1-c1ncc(C(=O)O)c(=O)[nH]1` [Example 20, 1,6-Dihydro-6-oxo-2-(2-ethoxyphenyl)pyrimidine-5-carboxylic acid], the ED50 stood at 0.07 mg/kg.

As for `CCCOc1ccccc1-c1ncc(C(=O)O)c(=O)[nH]1` [Example 21, 1,6-Dihydro-6-oxo-2-(2-n-propoxyphenyl)pyrimidine-5-carboxylic acid], the ED50 is ~0.1 mg/kg.

The same data set, now with this note: po, Table I, p.o., 10 minutes prior to antigen challenge, esters suspended in Tween/CMC, read-out: ID50 (dose of compound that inhibits 50% of the response), ethyl esters, p.o.
Turning to `CCOC(=O)c1cnc(-c2ccccc2OC(C)CC)[nH]c1=O` (racemic) [Example 10, Ethyl (±)-1,6-dihydro-6-oxo-2-(2-sec-butoxyphenyl)pyrimidine-5-carboxylate], the ED50 was determined as 0.5 mg/kg.

As for `CCOC(=O)c1cnc(-c2ccccc2OCC)[nH]c1=O` [Example 1, Ethyl 1,6-dihydro-6-oxo-2-(2-ethoxyphenyl)pyrimidine-5-carboxylate], the ED50 is ~2 mg/kg.

Turning to `CCCOc1ccccc1-c1ncc(C(=O)OCC)c(=O)[nH]1` [Example 5, Ethyl 1,6-dihydro-6-oxo-2-(2-n-propoxyphenyl)pyrimidine-5-carboxylate], the ED50 is ~5 mg/kg.

Consider `CCOC(=O)c1cnc(-c2ccccc2OC(C)C)[nH]c1=O` [Example 7, Ethyl 1,6-dihydro-6-oxo-2-(2-isopropoxyphenyl)pyrimidine-5-carboxylate], for which the ED50 was ~2 mg/kg.

As to `C=CCOc1ccccc1-c1ncc(C(=O)OCC)c(=O)[nH]1` [Example 8, Ethyl 1,6-dihydro-6-oxo-2-(2-allyloxyphenyl)pyrimidine-5-carboxylate], the ED50 amounted to 0.5 mg/kg.

As for `CCCCOc1ccccc1-c1ncc(C(=O)OCC)c(=O)[nH]1` [Example 9, Ethyl 1,6-dihydro-6-oxo-2-(2-n-butoxyphenyl)pyrimidine-5-carboxylate], the ED50 was 0.5 mg/kg.

With `CCOC(=O)c1cnc(-c2ccccc2OCC(C)C)[nH]c1=O` [Example 12, Ethyl 1,6-dihydro-6-oxo-2-(2-isobutoxyphenyl)pyrimidine-5-carboxylate], the ED50 was ~3 mg/kg.

In the case of `CCOC(=O)c1cnc(-c2cc(OC)ccc2OC)[nH]c1=O` [Example 15A, Ethyl 1,6-dihydro-6-oxo-2-(2,5-dimethoxyphenyl)pyrimidine-5-carboxylate], the ED50 was 5 mg/kg.

`CCOC(=O)c1cnc(-c2cc(Cl)ccc2OCC)[nH]c1=O` [Example 15B, Ethyl 1,6-dihydro-6-oxo-2-(5-chloro-2-ethoxyphenyl)pyrimidine-5-carboxylate]: the ED50 was ~0.5 mg/kg.

`CCOC(=O)c1cnc(-c2cc(OC)ccc2OCC)[nH]c1=O` [Example 15C, Ethyl 1,6-dihydro-6-oxo-2-(2-ethoxy-5-methoxyphenyl)pyrimidine-5-carboxylate]: the ED50 worked out at 0.3 mg/kg.

For `CCOC(=O)c1ccc(OCC)c(-c2ncc(C(=O)OCC)c(=O)[nH]2)c1` [Example 16, Ethyl 1,6-dihydro-6-oxo-2-(5-carbethoxy-2-ethoxyphenyl)pyrimidine-5-carboxylate], the ED50 came to 1 mg/kg.

As to `CCOC(=O)c1cnc(-c2cc(N)ccc2OCC)[nH]c1=O` [Example 17, Ethyl 1,6-dihydro-6-oxo-2-(5-amino-2-ethoxyphenyl)pyrimidine-5-carboxylate], the ED50 came to 0.5 mg/kg.

Turning to `CCOC(=O)c1cnc(-c2ccccc2OCC2CC2)[nH]c1=O` [Example 18, Ethyl 1,6-dihydro-6-oxo-2-(2-cyclopropylmethoxyphenyl)pyrimidine-5-carboxylate], the ED50 was ~0.3 mg/kg.

For `CCCOc1ccc(OC)cc1-c1ncc(C(=O)OCC)c(=O)[nH]1` [Example 19, Ethyl 1,6-dihydro-6-oxo-2-(5-methoxy-2-n-propoxyphenyl)-pyrimidine-5-carboxylate], the ED50 turned out to be 0.7 mg/kg.

The data set is the same for the next values; noted with them: po, Table II, p.o., 10 minutes prior to antigen challenge, acids solubilized in aqueous sodium bicarbonate, read-out: ID50 (dose of compound that inhibits 50% of the response), 5-carboxylic acids, p.o.
Regarding `CCC(C)Oc1ccccc1-c1ncc(C(=O)O)c(=O)[nH]1` (racemic) [Example 24B, (±)-1,6-Dihydro-6-oxo-2-(2-sec-butoxyphenyl)pyrimidine-5-carboxylic acid], the ED50 came out at 0.5 mg/kg.

With `CCOc1ccccc1-c1ncc(C(=O)O)c(=O)[nH]1` [Example 20, 1,6-Dihydro-6-oxo-2-(2-ethoxyphenyl)pyrimidine-5-carboxylic acid], the ED50 worked out at 0.5 mg/kg.

Turning to `CCCOc1ccccc1-c1ncc(C(=O)O)c(=O)[nH]1` [Example 21, 1,6-Dihydro-6-oxo-2-(2-n-propoxyphenyl)pyrimidine-5-carboxylic acid], the ED50 was determined as 0.9 mg/kg.

With `CC(C)Oc1ccccc1-c1ncc(C(=O)O)c(=O)[nH]1` [Example 22, 1,6-Dihydro-6-oxo-2-(2-isopropoxyphenyl)pyrimidine-5-carboxylic acid], the ED50 amounted to 0.8 mg/kg.

`CCCCOc1ccccc1-c1ncc(C(=O)O)c(=O)[nH]1` [Example 23, 1,6-Dihydro-6-oxo-2-(2-n-butoxyphenyl)pyrimidine-5-carboxylic acid]: the ED50 is 0.5 mg/kg.

For the molecule `C=CCOc1ccccc1-c1ncc(C(=O)O)c(=O)[nH]1` [Example 24A, 1,6-Dihydro-6-oxo-2-(2-allyloxyphenyl)pyrimidine-5-carboxylic acid], the ED50 came to 0.5 mg/kg.

Take `CC(C)COc1ccccc1-c1ncc(C(=O)O)c(=O)[nH]1` [Example 24C, 1,6-Dihydro-6-oxo-2-(2-isobutoxyphenyl)pyrimidine-5-carboxylic acid]: the ED50 came to 0.5 mg/kg.

With `COc1ccc(OC)c(-c2ncc(C(=O)O)c(=O)[nH]2)c1` [Example 24D, 1,6-Dihydro-6-oxo-2-(2,5-dimethoxyphenyl)pyrimidine-5-carboxylic acid], the ED50 turned out to be 1 mg/kg.

For the molecule `CCOc1ccc(Cl)cc1-c1ncc(C(=O)O)c(=O)[nH]1` [Example 24E, 1,6-Dihydro-6-oxo-2-(5-chloro-2-ethoxyphenyl)pyrimidine-5-carboxylic acid], the ED50 worked out at 0.5 mg/kg.

Regarding `CCOc1ccc(N)cc1-c1ncc(C(=O)O)c(=O)[nH]1` [Example 24F, 1,6-Dihydro-6-oxo-2-(5-amino-2-ethoxyphenyl)pyrimidine-5-carboxylic acid], the ED50 came out at 0.9 mg/kg.

For `CCOc1ccc(OC)cc1-c1ncc(C(=O)O)c(=O)[nH]1` [Example 24G, 1,6-Dihydro-6-oxo-2-(2-ethoxy-5-methoxyphenyl)pyrimidine-5-carboxylic acid], the ED50 is 0.2 mg/kg.

In the case of `O=C(O)c1cnc(-c2ccccc2OCC2CC2)[nH]c1=O` [Example 25, 1,6-Dihydro-6-oxo-2-(2-cyclopropylmethoxyphenyl)pyrimidine-5-carboxylic acid], the ED50 was ~0.1 mg/kg.

Consider `CCOc1ccc(N(C)C)cc1-c1ncc(C(=O)O)c(=O)[nH]1` [Example 26, 1,6-Dihydro-6-oxo-2-(5-dimethylamino-2-ethoxyphenyl)pyrimidine-5-carboxylicacid], for which the ED50 turned out to be 0.3 mg/kg.

`CCCOc1ccc(OC)cc1-c1ncc(C(=O)O)c(=O)[nH]1` [Example 27, 1,6-Dihydro-6-oxo-2-(5-methoxy-2-n-propoxyphenyl)pyrimidine-5-carboxylic acid]: the ED50 amounted to 0.3 mg/kg.

Test system in the next data set: not given
Assay: not given
The following applies: bronchial asthma treatment; cited from earlier work.
Turning to `CN1[C@@H]2CC[C@H]1C[C@@H](OC(=O)C(CO)c1ccccc1)C2` (stereo partly shown) [atropine], the side effects result is “undesirable side effects, e.g. cardiac stimulation and gastrointestinal distress”.

Turning to `CNC[C@H](O)c1ccc(O)c(O)c1` [epinephrine], the side effects entry was “undesirable side effects, e.g. cardiac stimulation and gastrointestinal distress”.

Turning to `CC(C)NCC(O)c1ccc(O)c(O)c1` (stereo not shown) [isoproterenol], the side effects result is “undesirable side effects, e.g. cardiac stimulation and gastrointestinal distress”.
